{"source": "paper PMC9875641", "about": "“Ophthalmic Solution of Smart Supramolecular Peptides to Capture Semaphorin 4D against Diabetic Retinopathy” (Advanced Science, 2022)", "note": "Where a SMILES comes first, the peptide text is derived from it.", "data": [{"target": "T1, sSema 4D (Homo sapiens, UniProt Q92854)", "T1 construct": "purchased Novoprotein Ltd. (Suzhou, China)", "T1 sequence (Q92854 22-734 limits assumed)": "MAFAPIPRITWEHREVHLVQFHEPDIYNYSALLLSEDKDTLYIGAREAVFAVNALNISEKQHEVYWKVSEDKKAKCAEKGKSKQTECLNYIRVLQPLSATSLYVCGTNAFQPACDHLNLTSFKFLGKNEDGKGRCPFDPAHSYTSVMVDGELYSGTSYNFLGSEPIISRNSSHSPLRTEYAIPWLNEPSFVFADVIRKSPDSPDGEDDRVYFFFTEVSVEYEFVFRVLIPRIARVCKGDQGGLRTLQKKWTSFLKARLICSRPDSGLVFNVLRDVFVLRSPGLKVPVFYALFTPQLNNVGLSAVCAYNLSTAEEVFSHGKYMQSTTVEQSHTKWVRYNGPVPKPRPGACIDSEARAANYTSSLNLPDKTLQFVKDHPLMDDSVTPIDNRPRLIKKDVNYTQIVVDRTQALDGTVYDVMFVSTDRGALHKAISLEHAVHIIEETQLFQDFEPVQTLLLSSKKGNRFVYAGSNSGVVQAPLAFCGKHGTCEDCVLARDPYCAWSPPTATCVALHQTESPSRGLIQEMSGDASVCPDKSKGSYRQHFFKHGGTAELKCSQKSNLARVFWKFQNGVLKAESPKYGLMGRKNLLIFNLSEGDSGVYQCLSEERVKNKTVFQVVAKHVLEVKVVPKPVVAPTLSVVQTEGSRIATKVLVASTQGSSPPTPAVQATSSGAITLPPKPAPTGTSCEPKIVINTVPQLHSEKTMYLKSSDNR", "experiment": "SPRi binding affinity of TPs to sSema 4D", "settings": "SPRi (surface plasmon resonance imaging)", "description": "To carry out the library screening, we first labeled the sSema4D with fluorescein isothiocyanate isomer (FITC), as shown in Figure 2E. Next, ≈10^6 beads library was incubated with FITC‐labeled sSema4D for 6 hours. The beads were thoroughly washed with DMF, water and methanol. Finally, under the fluorescence microscope, the beads with […] to sSema4D or FITC‐labeled sSema4D through noncovalent bonding were identified in Figure 2F. We selected twelve strongest putative fluorescent beads by physical separation. Subsequently, the corresponding peptides were cleaved off with BrCN from beads and analyzed by automatic Edman sequencing. The structures and sequence of transformable peptides (TPs) were determined and summarized (Figure S2, Supporting Information). TP‐1 to TP‐12 were resynthesized into solid phase and purified by high performance liquid chromatography (HPLC). The binding affinity of TPs toward sSema 4D was measured by enzyme‐linked immunosorbent assay (ELISA) and surface plasmon resonance imaging (SPRi). […] TP‐2 and TP‐7 were selected as the candidate TP binding sSema 4D to construct SSP. Subsequent SSP monomers (SSP‐1, sequence: C16‐FFVLK‐KQKRPRH; SSP‐2 C16‐FFVLK‐KNKAAKG) were synthesized and characterized by HPLC and Matrix‐assisted laser desorption/ionization time‐of‐flight mass spectrometry (MALDI‐TOF‐MS).", "units": {"Kd": "nM"}, "values": [{"smiles": "N=C(N)NCCC[C@H](NC(=O)[C@@H]1CCCN1C(=O)[C@H](CCCNC(=N)N)NC(=O)[C@H](CCCCN)NC(=O)[C@H](CCC(N)=O)NC(=O)[C@@H](N)CCCCN)C(=O)N[C@@H](Cc1c[nH]cn1)C(=O)O", "note": "[TP-7] (H-KQKRPRH-OH)", "Kd": 14.6}, {"smiles": "C[C@H](NC(=O)[C@H](C)NC(=O)[C@H](CCCCN)NC(=O)[C@H](CC(N)=O)NC(=O)[C@@H](N)CCCCN)C(=O)N[C@@H](CCCCN)C(=O)NCC(=O)O", "note": "[TP-2] (H-KNKAAKG-OH)", "Kd": 41.7}, {"smiles": "CC(C)[C@H](NC(=O)[C@H](CCCNC(=N)N)NC(=O)[C@H](C)NC(=O)[C@@H]1CCCN1C(=O)[C@H](C)NC(=O)[C@@H](N)CCCCN)C(=O)NCC(=O)O", "note": "[TP-10] (H-KAPARVG-OH)", "Kd": 64}]}]}
